Data taken from patent US6465521B1, “Composition for desorbing bacteria” (Ramot University Authority for Applied Research & …, priority 1988, dated 2002).

Experiments:
Type in all cases: cell-based
[1] = test system: Escherichia coli CSH 57; assay: Adhesion of Escherichia coli CSH 57 to hexadecane; details: 0 without
[2] = test system: Acinetobacter calcoaceticus RAG-1 (ATCC 31012); assay: Adhesion of RAG-1 to various oils (percent drop in turbidity after vortexing with oil); details: for Percent adhesion to: mineral oil 50 / Percent adhesion to: n-nexadecane / Percent adhesion to: soybean oil: 0.16 ml of 0.5% detergent added, vortexed 2 min
Description: In one experiment Acinetobacter calcoaceticus RAG-1 (ATCC 31012) cells were grown overnight with vigorous shaking at 30 C in brain heart infusion broth. The cells were harvested by centrifugation and washed twice in 0.2% saline. The cells were then suspended in 0.2% saline to a corrected optical density of about 15 at 400 nm (1 cm light path). To 1.2 ml of suspended bacteria in 4 ml square disposable polystyrene cuvettes were added the following: 0.16 ml of 0.5% detergent in water (or water for control) and 0.24 ml water. Following brief mixing, 0.2 ml of oil was added (vs. controls with no oil added) and the mixtures vortexed vigorously for 2 min. Following about thirty minutes, the corrected turbidity of the lower aqueous phase was measured at 400 nm. Adhesion is calculated as the percent drop in turbidity following the mixing procedure.
The ability of another cationic surface-active agent, chlorhexidine digluconate, to enhance microbial adhesions to oil droplets is shown in the following experiment. Actnetobacter calcoaceticus RAG-1 (ATCC 31012) cells were grown overnight with vigorous shaking at 30 C in brain heart infusion broth. The cells were harvested, washed by centrifugation, and suspended in 0.2% saline to a corrected optidal density of ca. 18 at […] (1 cm light path). To 1.2 ml of suspended bacteria in 4 ml square disposable polystyrene cuvettes were added the following: 0.16 ml of 0.5% chlorhexidine digluconate in water (or water for control) and 0.24 ml water. To each cuvette 0.2 ml of oil was added (vs. control with no oil added) and the mixtures vortexed vigorously for 2 min. After about thirty minutes, the turbidity of the lower aqueous phase was measured at 400 nm and corrected for non-linearity by a standard curve. Adhesion is calculated as the percent drop in corrected turbidity following the mixing procedure.

[3] = test system: Acinetobacter calcoaceticus MR-481; assay: Adhesion of Acinetobacter calcoaceticus MR-481 to oil droplets; details: 0 without
[4] = test system: Candida albicans; assay: Adhesion of the yeast Candida albicans to hexadecane; details: for adhesion of C. albicans to hexadecane: 0.16% cetyl pyridinium chloride; for adhesion of the yeast Candida albicans: 20 without
[5] = 0.16 ml of 0.5% chlorhexidine digluconate added, 0.2 ml oil

CCCCCCCCCCCCCCCC[n+]1ccccc1 [Cetylpyridinium chloride, cetylpyridinium chloride] was tested. Which “adhesion of Escherichia coli CSH 57 to hexadecane” value ([1]; 0.08% cetylpyridinium chloride present) did it give?
Its value is 98%.

What about the “Percent adhesion to: mineral oil 50” value ([2]; 0.2 ml oil) of the same compound?
Its value is 80%.

And the “Percent adhesion to: n-nexadecane” value ([2]; 0.2 ml oil)?
Its value is 83%.

And the “Percent adhesion to: soybean oil” value ([2]; 0.2 ml oil)?
The value was 47%.

And the “Adhesion of Acinetobacter calcoaceticus MR-481” value ([3]; 0.18% of cetylpyridinium chloride)?
Its value is 97%.

What about the “adhesion of C. albicans to hexadecane” value ([4]; 0.8% NaCl present) of the same compound?
Its value is 18%.

What about the “adhesion of C. albicans to hexadecane” value ([4]; no NaCl) of the same compound?
Its value is 100%.

With N=C(NCCCCCCNC(=N)NC(=N)Nc1ccc(Cl)cc1)NC(=N)Nc1ccc(Cl)cc1.O=C(O)[C@H](O)[C@@H](O)[C@H](O)[C@H](O)CO.O=C(O)[C@H](O)[C@@H](O)[C@H](O)[C@H](O)CO [Chlorhexidine digluconate, chlorhexidine digluconate] as the compound, how does the “adhesion of Escherichia coli CSH 57 to hexadecane” value ([1]; 0.1% chlorhexidine digluconate present) read?
Its value is 98%.

And the “Percent adhesion to Commerical soybean oil” value [2, 5]?
The value was 89%.

What about the “Percent adhesion to Sigma soybean oil” value [2, 5] of the same compound?
Its value is 90%.

And the “Percent adhesion to isohexadecane” value [2, 5]?
The value was 94%.

What about the “Percent adhesion to n-hexadecane” value [2, 5] of the same compound?
Its value is 95%.

What about the “adhesion of the yeast Candida albicans” value ([4]; 0.16% chlorhexidine digluconate) of the same compound?
Its value is 100%.

Which “Percent adhesion to: mineral oil 50” value ([2]; 0.2 ml oil) does the source give for CCCCCCCCCCCCOS(=O)(=O)[O-].[Na+] [Sodium dodecyl sulphate] here?
Its value is 0%.

What about the “Percent adhesion to: n-nexadecane” value ([2]; 0.2 ml oil) of the same compound?
Its value is 0%.

What about the “Percent adhesion to: soybean oil” value ([2]; 0.2 ml oil) of the same compound?
The value was 0%.

What about the “adhesion to all three test oils” value ([2]; added at the same concentration as the cetylpyridinium chloride (w/v)) of the same compound?
Its value is 0%.

Which “adhesion of Escherichia coli CSH 57 to hexadecane” value ([1]; 0.015% chitosan present) does the source give for chitosan here?
Its value is 97%.

What about the “Adhesion of Acinetobacter calcoaceticus MR-481” value ([3]; 0.019% of chitosan) of the same compound?
The value was 99%.

And the “adhesion of the yeast Candida albicans” value ([4]; 0.025% chitosan)?
The value was 95%.
